Assay type in all cases: functional, cell-based
A short description of test [1]: Antiinflammatory activity in neutrophils assessed as inhibition of oxygen radical generation. The note with it: Homo sapiens, Neutrophil.
A short description of test [2]: Antiinflammatory activity in neutrophil assessed as inhibition of fMLP induced elastase release. The note with it: Homo sapiens.
The nature of test [3]: Anticoagulant activity assessed as inhibition of thrombin induced rabbit platelet aggregation. The note with it: Oryctolagus cuniculus.
Test [4] is described as follows: Anticoagulant activity assessed as inhibition of arachidonic acid induced rabbit platelet aggregation. The conditions noted are these: Oryctolagus cuniculus.

A value given as a limit tells only on which side of the number the result lay.

Broadly, the IC50 is the concentration that inhibits the measured activity by half. With `COC(=O)c1cccc(Cl)c1NC(=O)c1ccccc1Cl`, the IC50 in test [1] was greater than 40 µM; in test [2], greater than 40 µM; in test [3], greater than 100 µM; in test [4], greater than 100 µM.

With `COC(=O)c1ccccc1NC(=O)c1ccccc1F`, the 50% inhibitory concentration (IC50) in test [1] is 0.65 µM; in test [2] it was greater than 40 µM; in test [3] it was greater than 100 µM; in test [4] it was 10.8 µM.

Regarding `COC(=O)c1ccccc1NC(=O)c1ccccc1Cl`, the half-maximal inhibitory concentration (IC50) was 11 µM in test [1], greater than 40 µM in test [2], greater than 100 µM in test [3] and 11 µM in test [4].

Regarding `COC(=O)c1ccccc1NC(=O)c1cccc(Br)c1`, the IC50 in test [1] is greater than 40 µM; in test [2], 15.4 µM; in test [3] it was greater than 100 µM; in test [4], greater than 100 µM.

As to `COC(=O)c1ccc(Cl)cc1NC(=O)c1ccc(F)cc1`, the IC50 in test [1] is greater than 40 µM; in test [2] it was greater than 40 µM; in test [3], greater than 100 µM; in test [4] it was greater than 100 µM.

With `COC(=O)c1ccccc1NC(=O)c1ccccc1C`, the IC50 is 9.26 µM in test [1], greater than 40 µM in test [2], greater than 100 µM in test [3] and 16.6 µM in test [4].

`COC(=O)c1ccccc1NC(=O)c1ccccc1OC`: the half-inhibitory concentration (IC50) in test [1] was 7.41 µM; in test [2], greater than 40 µM; in test [3], greater than 100 µM; in test [4], 8 µM.

For the compound `COC(=O)c1ccc(Cl)cc1NC(=O)c1ccccc1Cl`, the IC50 in test [1] is greater than 40 µM; in test [2], greater than 40 µM; in test [3], greater than 100 µM; in test [4], 1.1 µM.

With `CCOC(=O)c1ccccc1NC(=O)c1ccccc1F`, the results for the IC50 in test [1], in test [2] and in test [3] were 0.17 µM, 14.3 µM and greater than 100 µM, respectively.

Take `COC(=O)c1ccccc1NC(=O)c1cccc(C)c1`: the concentration for half-maximal inhibition (IC50) in test [1] was greater than 40 µM; in test [2] it was 18.3 µM; in test [3] it was greater than 100 µM; in test [4], greater than 100 µM.

For `CCOC(=O)c1ccc(Cl)cc1NC(=O)c1ccccc1F`, the IC50 in test [1] was greater than 40 µM; in test [2] it was greater than 40 µM; in test [3], greater than 100 µM; in test [4] it was 3.8 µM.

On to `CCOC(=O)c1ccc(Cl)cc1NC(=O)c1ccccc1Br`, for which the IC50 in test [1] was greater than 40 µM; in test [2], greater than 40 µM; in test [3] it was greater than 100 µM; in test [4] it was 3.6 µM.

Consider `COC(=O)c1ccccc1NC(=O)c1ccc(F)cc1`, for which the IC50 in test [1] was greater than 40 µM; in test [2] it was greater than 40 µM; in test [3], greater than 100 µM; in test [4], greater than 100 µM.

For the compound `COC(=O)c1c(Cl)cccc1NC(=O)c1ccccc1Cl`, the IC50 in test [1] is greater than 40 µM; in test [2] it was greater than 40 µM; in test [3] it was greater than 100 µM; in test [4], 80.8 µM.

For the compound `CCOC(=O)c1ccc(Cl)cc1NC(=O)c1ccccc1C`, the 50% inhibitory concentration (IC50) in test [1] was greater than 40 µM; in test [2], 2.83 µM; in test [3], greater than 100 µM; in test [4], 4.9 µM.

For `CCCOC(=O)c1ccc(Cl)cc1NC(=O)c1ccccc1F`, the 50% inhibitory concentration (IC50) in test [1] is greater than 40 µM; in test [2] it was greater than 40 µM; in test [3], greater than 100 µM; in test [4] it was 1.6 µM.

Regarding `CCCOC(=O)c1ccc(Cl)cc1NC(=O)c1ccccc1Cl`, the concentration for half-maximal inhibition (IC50) in test [1] was greater than 40 µM; in test [2], greater than 40 µM; in test [3] it was greater than 100 µM; in test [4], 0.7 µM.

With `COC(=O)c1c(Cl)cccc1NC(=O)c1ccccc1Br`, the half-maximal inhibitory concentration (IC50) is greater than 40 µM in test [1], greater than 40 µM in test [2], greater than 100 µM in test [3] and 76.4 µM in test [4].

As to `CCCOC(=O)c1ccc(Cl)cc1NC(=O)c1ccccc1Br`, the half-maximal inhibitory concentration (IC50) in test [1] was greater than 40 µM; in test [2], greater than 40 µM; in test [3], greater than 100 µM; in test [4], 3.5 µM.

For the compound `COC(=O)c1ccccc1NC(=O)c1ccc(C)cc1`, the IC50 in test [1] was greater than 40 µM; in test [2], greater than 40 µM; in test [3] it was greater than 100 µM; in test [4], greater than 100 µM.

As to `COC(=O)c1ccc(Cl)cc1NC(=O)c1ccccc1C`, the IC50 in test [1] is greater than 40 µM; in test [2], greater than 40 µM; in test [3] it was greater than 100 µM; in test [4], 4.3 µM.

With `COC(=O)c1ccccc1NC(=O)c1ccc(Cl)cc1`, the IC50 was greater than 40 µM in test [1], greater than 40 µM in test [2], greater than 100 µM in test [3] and greater than 100 µM in test [4].

As for `CC(=O)c1ccccc1NC(=O)c1ccccc1F`, the IC50 in test [1] is 24.1 µM; in test [2] it was greater than 40 µM; in test [3], greater than 100 µM.

As for `COC(=O)c1cccc(Cl)c1NC(=O)c1ccccc1Br`, the half-inhibitory concentration (IC50) in test [1] was greater than 40 µM; in test [2] it was greater than 40 µM; in test [3], greater than 100 µM; in test [4], greater than 100 µM.

On to `COC(=O)c1ccc(Cl)cc1NC(=O)c1ccc(C)cc1`, for which the IC50 in test [1] is greater than 40 µM; in test [2], greater than 40 µM; in test [3], greater than 100 µM; in test [4], greater than 100 µM.

With `COC(=O)c1ccc(Cl)cc1NC(=O)c1ccc(OC)cc1`, the IC50 is greater than 40 µM in test [1], greater than 40 µM in test [2], greater than 100 µM in test [3] and greater than 100 µM in test [4].

As for `COC(=O)c1ccccc1NC(=O)c1ccc(Br)cc1`, the IC50 in test [1] is greater than 40 µM; in test [2] it was greater than 40 µM; in test [3] it was greater than 100 µM; in test [4] it was greater than 100 µM.

With `COC(=O)c1ccccc1NC(=O)c1ccc(OC)cc1`, the half-maximal inhibitory concentration (IC50) in test [1] is greater than 40 µM; in test [2] it was greater than 40 µM; in test [3] it was greater than 100 µM; in test [4] it was greater than 100 µM.

For `COC(=O)c1cccc(Cl)c1NC(=O)c1ccccc1F`, the 50% inhibitory concentration (IC50) in test [1] is greater than 40 µM; in test [2], greater than 40 µM; in test [3], greater than 100 µM; in test [4], greater than 100 µM.

Regarding `COC(=O)c1ccccc1NC(=O)c1cccc(OC)c1`, the IC50 in test [1] is greater than 40 µM; in test [2], greater than 40 µM; in test [3], greater than 100 µM; in test [4], greater than 100 µM.

Regarding `COC(=O)c1cccc(Cl)c1NC(=O)c1ccccc1C`, the IC50 in test [1] was greater than 40 µM; in test [2], greater than 40 µM; in test [3] it was greater than 100 µM; in test [4], greater than 100 µM.

Turning to `COC(=O)c1ccccc1NC(=O)c1cccc(Cl)c1`, the half-inhibitory concentration (IC50) in test [1] was greater than 40 µM; in test [2] it was greater than 40 µM; in test [3], greater than 100 µM; in test [4], greater than 100 µM.

On to `COC(=O)c1ccccc1NC(=O)c1cccc(F)c1`, for which the IC50 in test [1] was 10.6 µM; in test [2], greater than 40 µM; in test [3], greater than 100 µM; in test [4], greater than 100 µM.

On to `CCOC(=O)c1ccc(Cl)cc1NC(=O)c1ccccc1OC`, for which the concentration for half-maximal inhibition (IC50) in test [1] is greater than 40 µM; in test [2], 4.31 µM; in test [3] it was greater than 100 µM; in test [4], 4.9 µM.

In the case of `COC(=O)c1cccc(Cl)c1NC(=O)c1ccccc1OC`, the IC50 in test [1] was greater than 40 µM; in test [2], greater than 40 µM; in test [3] it was greater than 100 µM; in test [4] it was 66.6 µM.

As for `CCCOC(=O)c1ccc(Cl)cc1NC(=O)c1ccccc1OC`, the IC50 was greater than 40 µM in test [1], greater than 40 µM in test [2], greater than 100 µM in test [3] and 23.4 µM in test [4].

Consider `COC(=O)c1ccccc1NC(=O)c1ccccc1Br`, for which the 50% inhibitory concentration (IC50) is 12 µM in test [1], greater than 40 µM in test [2], greater than 100 µM in test [3] and 22.9 µM in test [4].

Turning to `COC(=O)c1ccc(Cl)cc1NC(=O)c1ccccc1F`, the IC50 in test [1] was greater than 40 µM; in test [2], greater than 40 µM; in test [3], greater than 100 µM; in test [4], 2.2 µM.

`COC(=O)c1c(Cl)cccc1NC(=O)c1ccccc1OC`: the half-maximal inhibitory concentration (IC50) is greater than 40 µM in test [1], greater than 40 µM in test [2], greater than 100 µM in test [3] and 62.3 µM in test [4].

For `CCOC(=O)c1ccc(Cl)cc1NC(=O)c1ccccc1Cl`, the IC50 in test [1] was greater than 40 µM; in test [2] it was greater than 40 µM; in test [3], greater than 100 µM; in test [4], 0.8 µM.

In the case of `COC(=O)c1ccc(Cl)cc1NC(=O)c1ccccc1Br`, the concentration for half-maximal inhibition (IC50) in test [1] is greater than 40 µM; in test [2], greater than 40 µM; in test [3] it was greater than 100 µM; in test [4], 2.6 µM.

In the case of `COC(=O)c1ccc(Cl)cc1NC(=O)c1ccc(Cl)cc1`, the IC50 in test [1] was greater than 40 µM; in test [2], greater than 40 µM; in test [3], greater than 100 µM; in test [4], greater than 100 µM.

As to `COC(=O)c1ccc(Cl)cc1NC(=O)c1ccc(Br)cc1`, the 50% inhibitory concentration (IC50) in test [1] was greater than 40 µM; in test [2] it was greater than 40 µM; in test [3] it was greater than 100 µM; in test [4], greater than 100 µM.

With `COC(=O)c1c(Cl)cccc1NC(=O)c1ccccc1F`, the concentration for half-maximal inhibition (IC50) in test [1] was greater than 40 µM; in test [2] it was greater than 40 µM; in test [3], greater than 100 µM; in test [4], 78.2 µM.

As for `COC(=O)c1ccc(Cl)cc1NC(=O)c1ccccc1OC`, the half-inhibitory concentration (IC50) in test [1] was greater than 40 µM; in test [2] it was greater than 40 µM; in test [3] it was greater than 100 µM; in test [4], 2.2 µM.

As for `COC(=O)c1c(Cl)cccc1NC(=O)c1ccccc1C`, the concentration for half-maximal inhibition (IC50) in test [1] was greater than 40 µM; in test [2] it was greater than 40 µM; in test [3] it was greater than 100 µM; in test [4], greater than 100 µM.

`CCCOC(=O)c1ccc(Cl)cc1NC(=O)c1ccccc1C`: the IC50 in test [1] is greater than 40 µM; in test [2], greater than 40 µM; in test [3], greater than 100 µM; in test [4] it was 2.2 µM.

Turning to `CC(=O)Oc1ccccc1C(=O)O` [ASPIRIN], the concentration for half-maximal inhibition (IC50) was greater than 40 µM in test [1], greater than 40 µM in test [2], greater than 100 µM in test [3] and 152 µM in test [4].

Regarding `c1ccc2c(c1)[I+]c1ccccc1-2` [DIPHENYLENEIODONIUM], the IC50 in test [1] was 0.86 µM.

`COc1ccc2c(c1)c(CC(=O)O)c(C)n2C(=O)c1ccc(Cl)cc1` [INDOMETHACIN]: the IC50 in test [1] was greater than 40 µM; in test [2], greater than 40 µM; in test [3], greater than 100 µM; in test [4], 0.14 µM.

As for `O=S(=O)(F)Cc1ccccc1` [PHENYLMETHYLSULFONYLFLUORIDE], the half-inhibitory concentration (IC50) in test [2] is 131 µM.

The values are drawn from ChEMBL document CHEMBL1139089, “The evaluation and structure-activity relationships of 2-benzoylaminobenzoic esters and their analogues as anti-inflammatory and anti-platelet aggregation agents” (Bioorg Med Chem Lett, 2007).
